Assay results from patent US11426361B2, “Eye drops for treatment of irritation not due to infection” (Resdevco Research and Development Co. Ltd., priority 2017, dated 2022).

System: human corneal epithelial cells (HCEC cell line)
Assay: Example 5: expression of barrier genes (Involucrin, Occludin, Filaggrin, Cadherin-1) at mRNA level by Q-PCR
Assay type: cell-based
Details: three hours
Procedure: An experiment was performed to investigate the effect in vitro of a solution containing glycerol on human corneal epithelial cells, in particular, on the expression of barrier genes Involucrin, Occludin, Filaggrin, and Cadherin-1.
Immortalized human corneal epithelial cells (HCEC cell line) cultured in DMEM/F12 with 5% FBS and 10 ng/ml human epidermal growth factor (Invitrogen—Gibco). The cells were treated for three hours with one of the following three compositions: (a) an aqueous solution of glycerol (0.27% w/v); (b) 20 μg/ml Polyinosinic:polycytidylic acid (p(I:C), an activator of TLR3 to induce inflammation; and (c) a combination of the two previous compositions.
The expression of the barrier genes was determined at the mRNA level by use of quantitative “real-time” PCR (Q-PCR). Q-PCR was performed on an ABI Prism 7000 sequence detection system (Applied Biosystems, Foster City, Calif.) using the 5′ nuclease assay. Total RNA was isolated using TRIzol (Invitrogen) and 3 μg of total RNA were reverse-transcribed into cDNA by using 15 U of AMV reverse transcriptase (Promega, Madison, Wis., USA) and 0.025 μg/μl random primers (Promega). PCR amplification was performed by using the TaqMan primers and probes. As internal controls, transcripts of cyclophilin A (PPIA) were determined.

## OCC(O)CO [glycerol]
co-incubation with glycerol 0.27% during p(I:C) 20 μg/ml challenge
  effect on barrier-impairing actions of p(I:C) (barrier gene expression): significantly prevented the barrier-impairing actions of the TLR3 agonist

## Polyinosinic:polycytidylic acid [p(I:C)]
p(I:C) 20 μg/ml alone
  expressions of Involucrin, Occludin, Filaggrin, and Cadherin-1: markedly decreased
